In US3966779A, “Thymol derivatives and a process for their preparation” (priority 1974, dated 1976):
Structures can show the parent of a compound that is named as a salt.

Assays:
[1] = Acute toxicity, 7-day test, method of Litchfield and Wilcoxon; settings: mouse, in vivo, mice
Source text: The toxicity has been determined in a 7-day test with NMRI-mice having an average body weight of 18 to 26 g according to the method of Litchfield and Wilcoxon.

nictitating-membrane = assay: Adrenaline stimulated nictitating-membrane of anesthetized cats (peripheral vasodilation); type: in vivo; settings: for change in adrenaline-induced nictitating-membrane contraction: anesthetized cats, 0.01 mg Adrenaline i.v.; for effectiveness compared to Compound A (nictitating-membrane): in words, from Table II
Procedure: a. Adrenaline stimulated nictitating-membrane of anesthetized cats
This experiment is a classical model for the measurements of a peripheral vasodilation. Male and female cats have been anesthetized with pentobarbital. After tracheotomy the contraction of the nictitating-membrane was recorded by means of a strain-gauge. As stimulating agent 0.01 mg Adrenaline has been administered intravenously in intervals of 10 minutes.

isolated rabbit ears = assay: Isolated rabbit ears, Pissensky's method (increased number of drops)
Procedure: b. Experiments on isolated rabbit ears
Male and female rabbits were killed 15 minutes after administration of heparine. Both ears were then cut off at the bases and examined according to Pissensky's method. The overflowing drops were measured by means of an electronic drop counter.

[2] = prior art, cited from earlier work

| Structure (SMILES) | LD50 at 168 h ([1]; iv) [mg/kg] | LD50 at 168 h ([1]; po, i.g.) [mg/kg] | LD50 at 168 h ([1]; sc) [mg/kg] | change in adrenaline-induced nictitating-membrane contraction (nictitating-membrane; 0.025 mg/kg i.v.) | change in adrenaline-induced nictitating-membrane contraction (nictitating-membrane; 0.5 mg/kg i.v.) | change in adrenaline-induced nictitating-membrane contraction (nictitating-membrane; 2 mg/kg i.v.) | effectiveness compared to Compound A (nictitating-membrane) (nictitating-membrane) | Increased number of drops measured in the isolated rabbit ear (isolated rabbit ears; 0,5 mg) | Increased number of drops measured in the isolated rabbit ear (isolated rabbit ears; 1 mg) [%] | Increased number of drops measured in the isolated rabbit ear (isolated rabbit ears; 2 mg) [%] | Increased number of drops measured in the isolated rabbit ear (isolated rabbit ears; 4 mg) | Increased number of drops measured in the isolated rabbit ear (isolated rabbit ears; 0,025 mg) | action on the vessels of isolated rabbit ears (isolated rabbit ears; in words, from Table III) | duration of action [2] | absorbability ([2]; thymoxamine) | toxicity ([2]; thymoxamine) |
| --- | --- | --- | --- | --- | --- | --- | --- | --- | --- | --- | --- | --- | --- | --- | --- | --- |
| Cc1cc(OCCN(C)C)c(C(C)C)cc1OC(=O)OC(C)C [Compound 1, (4-Isopropoxycarboxy-thymyl)-(2'-dimethylaminoathyl)-ether.HCl] | 44 | 272 | 210 | ~ 60% | 100% | absolute in- | much more effective than Compound A | ~ 20% | 34 | 58 | 139% | ~ 10% | unexpected action on the vessels of isolated rabbit ears | – | – | – |
| CCCCCCCCCC(=O)Oc1cc(C(C)C)c(OCCN(C)C)cc1C [Compound 2, (4-Caprinyloxy-thymyl)-(2'-dimethylaminoathyl)-ether.HCl] | 96 | 1020 | 1550 | ~ 10% | ~ 50% | 80% | much more effective than Compound A | 10% | 27 | 68 | ~ 80% | 15% | – | – | – | – |
| CCCCCCCC(=O)Oc1cc(C(C)C)c(OCCN(C)C)cc1C [Compound 3, (4-Capryloxy-thymyl)-(2'-dimethylaminoathyl)-ether.HCl] | 25 | 400 | – | ~ 30% | 80% | 100% | much more effective than Compound A | 80% | – | – | – | ~ 40% | – | – | – | – |
| CC(=O)Oc1cc(C(C)C)c(OCCN(C)C)cc1C [Compound A, reference compound] | 48 | 193 | 156 | 0% | 0% | 50% | – | 15% | 15 | 16 | 16% | 14% | – | short duration of action | low absorbability | relative toxicity |
